According to US12077483B2, “Modified amine lipids” (Intellia Therapeutics, Inc., priority 2018, dated 2024):

What was measured:
mouse TTR gene = test: In vivo editing in mouse liver, LNP with Cas9 mRNA and sgRNA G282, NGS; conditions: for Mean % Indel: Table 5
Experimental: (§1) LNPs were prepared using various amine lipids in a 4-component lipid system consisting of an ionizable lipid (e.g. an amine lipid), DSPC, cholesterol and PEG-2k-DMG. In assays for percent liver editing in mice, Cas9 mRNA and chemically modified sgRNA targeting a mouse sequence were formulated in LNPs, at either a 1:1 w/w ratio or a 1:2 w/w ratio.
(§2) The lipid components were dissolved in 100% ethanol with the lipid component molar ratios described below. The chemically modified sgRNA and Cas9 mRNA were combined and dissolved in 25 mM citrate, 100 mM NaCl, pH 5.0, resulting in a concentration of total RNA cargo of approximately 0.45 mg/mL. The LNPs were formulated with an N/P ratio of about 6, with the ratio of chemically modified sgRNA: Cas9 mRNA at either a 1:1 or 1:2 w/w ratio as described below.
(§3) CD-1 female mice, ranging from 6-10 weeks of age were used in each study. Animals were weighed and grouped according to body weight for preparing dosing solutions based on group average weight. LNPs were dosed via the lateral tail vein in a volume of 0.2 mL per animal (approximately 10 mL per kilogram body weight). The animals were periodically observed for adverse effects for at least 24 hours post dose.
(§4) For studies measuring in vivo editing in liver, CD-1 female mice were dosed at 0.1 mpk unless otherwise noted. Animals were euthanized at 6 or 7 days by exsanguinationvia cardiac puncture under isoflourane anesthesia. Liver tissue was collected from each animal for DNA extraction and analysis. Blood was collected into serum separator tubes or into tubes containing buffered sodium citrate for plasma as described herein. Cohorts of mice were measured for editing by Next-Generation Sequencing (NGS).
(§5) In brief, to quantitatively determine the efficiency of editing at the target location in the genome, genomic DNA was isolated and deep sequencing was utilized to identify the presence of insertions and deletions introduced by gene editing.
(§6) PCR primers were designed around the target site (e.g., B2M), and the genomic area of interest was amplified. Additional PCR was performed according to the manufacturer's protocols (Illumina) to add the necessary chemistry for sequencing. The amplicons were sequenced on an Illumina MiSeq instrument. The reads were aligned to the relevant reference genome (e.g., GRCm38) after eliminating those having low quality scores. The resulting files containing the reads were mapped to the reference genome (BAM files), where reads that overlapped the target region of interest were selected and the number of wild type reads versus the number of reads which contain an insertion, substitution, or deletion was calculated.
(§7) The editing percentage (e.g., the “editing efficiency” or “percent editing”) is defined as the total number of sequence reads with insertions or deletions over the total number of sequence reads, including wild type.
(§8) We assessed in vivo editing efficiency for materials delivered with formulations including various amine lipid compounds. Editing was measured using either G282 (SEQ ID No: 1) which targets the mouse TTR gene or G650 (SEQ ID No. 2) which targets the mouse B2M gene. Lipids described above were assessed for efficacy through in vivo editing experiments. LNPs were formulated at a 1:1 w/w ratio of sgRNA to Cas9 mRNA, and at an N/P ratio of about 6. Molar concentrations of lipids in the lipid component of the LNPs are expressed as mol % amine lipid/DSPC/cholesterol/PEG-2k-DMG, e.g. 50/10/38.5/1.5. The final LNPs were characterized to determine the encapsulation efficiency, polydispersity index, and average particle size according to the analytical methods provided above. Analysis of average particle size, polydispersity (PDI), total RNA content and encapsulation efficiency of RNA are shown in Table 2.
To assess whether the editing was dose responsive, experiments were performed in vivo at various LNP dose levels. […]

mouse B2M gene = test: In vivo editing in mouse liver, LNP with Cas9 mRNA and sgRNA G650, NGS; conditions: Table 3; guide G650; CD-1 female mice, 0.1 mpk i.v., liver at 6 or 7 days; Exp. 2-7
Experimental: as §1, §2, §3, §4, §5, §6, §7, §8

rat TTR = test: Serum TTR levels in rats after LNP delivery; type: in vivo; conditions: Table 11, G534, Sprague Dawley female rats i.v.
TTR in HUH7 cells = test: In vitro editing in HUH7 cells, LNP with Cas9 mRNA and sgRNA G000502, NGS; type: cell-based, human; conditions: Table 14; 2000 ng RNA per well, cells harvested 6 hours post-transfection, biological duplicate, G000502 target locus
Experimental: A series of compounds based on Compound 46 that vary by the inclusion of a C4-12 alkyl at the R^3 position of Formula (IA) (as illustrated in FIG. 13A) were tested for in vitro editing. The human hepatocellular carcinoma cell line […] (Japanese Collection of Research Bioresources Cell Bank, Cat. JCRB0403) was cultured in DMEM media supplemented with 10% fetal bovine serum and 1% Penicillin-Streptomycin. Cells were plated at a density of 20,000 cells/well in a 96-well plate 24 hours prior to transfection (˜80% confluent at time of transfection). The LNPs were formulated at a 1:2 w/w ratio of sgRNA and Cas9 mRNA using the cross flow procedure with lipid molar compositions as described in Table 13 at an N/P ratio of 6.0. LNP compositions were analyzed for average particle size, polydispersity (pdi), total RNA content and encapsulation efficiency of RNA as described in Example 115. Analysis of average particle size, polydispersity (PDI), total RNA content and encapsulation efficiency of RNA are shown in Table 13. LNPs were diluted into media, incubated for 5 minutes at 37 C and pipetted onto cells at a dose of 2000 ng RNA per well. Each condition was assayed in biological duplicate. Cells were harvested post-transfection at 6 hours. Genomic DNA was extracted using 50 μL/well BuccalAmp DNA Extraction solution (Epicentre, Cat. QE09050) according to manufacturer's protocol. All DNA samples were subjected to PCR and subsequent NGS analysis for editing at the G000502 target locus, as described above. As shown in Table 14 and FIG. 13B, all compounds tested were efficacious for in vitro editing.

[1] = Table 3, guide G282, CD-1 female mice, 0.1 mpk i.v., liver at 6 or 7 days, Exp. 1, 8, 9, 10
[2] = G00282, CD-1 female mice i.v., dose 0.1 mpk, liver
[3] = G00282, CD-1 female mice i.v., dose 0.3 mpk, liver
[4] = Table 7, G00282, CD-1 female mice i.v., dose 0.1 mpk, liver
[5] = Table 7, G00282, CD-1 female mice i.v., dose 0.3 mpk, liver

CCCCC/C=C\C/C=C\CCCCCCCC(=O)OCC(COC(=O)CCCCCCC/C=C\C/C=C\CCCCC)OC(=O)CCC(CCCCCCCCCCCC)OC(=O)NCC1CCCN1C (stereo not shown) [Compound 9, 2-((4-((((1-methylpyrrolidin-2-yl)methyl)carbamoyl)oxy)hexadecanoyl)oxy) propane-1,3-diyl (9Z,9′Z,12Z,12′Z)-bis(octadeca-9,12-dienoate)]
Editing Mean % Indel (mouse TTR gene; [1]): 44.1%
Mean % Indel (mouse TTR gene; [2]): 50.6%
Mean % Indel (mouse TTR gene; [3]): 64.5%
Editing Mean % Indel (mouse B2M gene): 20.3%

CCCCC/C=C\C/C=C\CCCCCCCC(=O)OCC(COC(=O)CCCCCCC/C=C\C/C=C\CCCCC)OC(=O)CCC(CCCCCCCCCCCC)OC(=O)OCCCN(C)C (stereo not shown) [Compound 1, 2-((4-(((3-(dimethylamino)propoxy)carbonyl)oxy)hexadecanoyl)oxy)propane-1,3-diyl (9Z,9′Z,12Z,12′Z)-bis(octadeca-9,12-dienoate)]
Editing Mean % Indel (mouse TTR gene; [1]): 13.1%

CCCCC/C=C\C/C=C\CCCCCCCC(=O)OCC(COC(=O)CCCCCCC/C=C\C/C=C\CCCCC)OC(=O)CCC(CCCCCCCCCCCC)OC(=O)NCCN(C)CC (stereo not shown) [Compound 7, 2-((4-(((2-(ethyl(methyl)amino)ethyl)carbamoyl)oxy)hexadecanoyl)oxy)propane-1,3-diyl (9Z,9′Z,12Z,12′Z)-bis(octadeca-9,12-dienoate)]
Mean % Indel (mouse TTR gene; [2]): 49.1%
Mean % Indel (mouse TTR gene; [3]): 69.4%
Editing Mean % Indel (mouse B2M gene): 22.6%

CCCCC/C=C\C/C=C\CCCCCCCC(=O)OCC(COC(=O)CCCCCCC/C=C\C/C=C\CCCCC)OC(=O)CCC(CCCCCC)OC(=O)OCCCN1CCCC1 (stereo not shown) [Compound 45, 2-((4-(((3-(pyrrolidin-1-yl)propoxy)carbonyl)oxy)decanoyl)oxy)propane-1,3-diyl (9Z,9′Z,12Z,12′Z)-bis(octadeca-9,12-dienoate)]
Serum TTR (rat TTR; dose 0.03 mpk): 910.4 µg/mL
Serum TTR % TSS (rat TTR; dose 0.03 mpk): 110% TSS
Serum TTR (rat TTR; dose 0.1 mpk): 270.7 µg/mL
Serum TTR % TSS (rat TTR; dose 0.1 mpk): 32% TSS

CCCCC/C=C\C/C=C\CCCCCCCC(=O)OCC(COC(=O)CCCCCCC/C=C\C/C=C\CCCCC)OC(=O)CCC(CCCCCCCC)OC(=O)NCC1CCCN1C (stereo not shown) [Compound 35, 2-((4-((((1-methylpyrrolidin-2-yl)methyl)carbamoyl)oxy)dodecanoyl)oxy) propane-1,3-diyl (9Z,9′Z,12Z,12′Z)-bis(octadeca-9,12-dienoate)]
Editing Mean % Indel (mouse B2M gene): 35.5%

CCCCC/C=C\C/C=C\CCCCCCCC(=O)OCC(COC(=O)CCCCCCC/C=C\C/C=C\CCCCC)OC(=O)CCC(CCCCCCCCCC)OC(=O)NCCN(C)CC (stereo not shown) [Compound 39, 2-((4-(((2-(ethyl(methyl)amino)ethyl)carbamoyl)oxy)tetradecanoyl)oxy)propane-1,3-diyl (9Z,9′Z,12Z,12′Z)-bis(octadeca-9,12-dienoate)]
Editing Mean % Indel (mouse TTR gene; [1]): 36.5%

CCCCC/C=C\C/C=C\CCCCCCCC(=O)OCC(COC(=O)CCCCCCC/C=C\C/C=C\CCCCC)OC(=O)CCC(CCCCCCCC)OC(=O)OCCCN1CCCC1 (stereo not shown) [Compound 36, 2-((4-(((3-(pyrrolidin-1-yl)propoxy)carbonyl)oxy)dodecanoyl)oxy)propane-1,3-diyl (9Z,9′Z,12Z,12′Z)-bis(octadeca-9,12-dienoate)]
Editing Mean % Indel (mouse B2M gene): 30.0%

CCCCC/C=C\C/C=C\CCCCCCCC(=O)OCC(COC(=O)CCCCCCC/C=C\C/C=C\CCCCC)OC(=O)CCC(CCCCCCCCCCCC)OC(=O)OCCCN1CCCC1 (stereo not shown) [Compound 5, 2-((4-(((3-(pyrrolidin-1-yl)propoxy)carbonyl)oxy)hexadecanoyl)oxy)propane-1,3-diyl (9Z,9′Z,12Z,12′Z)-bis(octadeca-9,12-dienoate)]
Editing Mean % Indel (mouse TTR gene; [4]): 26.1%
Editing Mean % Indel (mouse TTR gene; [5]): 52.5%
efficacy for in vivo editing (in words) (mouse TTR gene; mouse liver, Examples 116 and 118): efficacious
Editing Mean % Indel (mouse B2M gene): 17.5%

CCCCC/C=C\C/C=C\CCCCCCCC(=O)OCC(COC(=O)CCCCCCC/C=C\C/C=C\CCCCC)OC(=O)CCC(CCCCCCCC)OC(=O)NCCN(C)CC (stereo not shown) [Compound 34, 2-((4-(((2-(ethyl(methyl)amino)ethyl)carbamoyl)oxy)dodecanoyl)oxy)propane-1,3-diyl (9Z,9′Z,12Z,12′Z)-bis(octadeca-9,12-dienoate)]
Serum TTR (rat TTR; dose 0.03 mpk): 514.2 µg/mL
Serum TTR % TSS (rat TTR; dose 0.03 mpk): 61% TSS
Serum TTR (rat TTR; dose 0.1 mpk): 188.9 µg/mL
Serum TTR % TSS (rat TTR; dose 0.1 mpk): 22% TSS
Editing (TTR in HUH7 cells): 49.0%
Editing Mean % Indel (mouse TTR gene; [4]): 54.9%
Editing Mean % Indel (mouse TTR gene; [5]): 68.3%
Editing Mean % Indel (mouse B2M gene): 44.8%

CCCCC/C=C\C/C=C\CCCCCCCC(=O)OCC(COC(=O)CCCCCCC/C=C\C/C=C\CCCCC)OC(=O)CCC(CCCCCC)OC(=O)NCCN(C)CC (stereo not shown) [Compound 40, 2-((4-(((2-(ethyl(methyl)amino)ethyl)carbamoyl)oxy)decanoyl)oxy)propane-1,3-diyl (9Z,9′Z,12Z,12′Z)-bis(octadeca-9,12-dienoate)]
Editing Mean % Indel (mouse TTR gene; [1]): 44.7%

CCCCC/C=C\C/C=C\CCCCCCCC(=O)OCC(COC(=O)CCC(OCCCCCCCC)OCCCCCCCC)COC(=O)OCCCN(CC)CC (stereo not shown) [Compound 49, 3-((4,4-bis(octyloxy)butanoyl)oxy)-2-((((3-(diethylamino)propoxy)carbonyl)oxy)methyl)propyl (9Z,12Z)-octadeca-9,12-dienoate, reference compound]
Serum TTR (rat TTR; dose 0.03 mpk): 790.9 µg/mL
Serum TTR % TSS (rat TTR; dose 0.03 mpk): 94% TSS
Serum TTR (rat TTR; dose 0.1 mpk): 669.5 µg/mL
Serum TTR % TSS (rat TTR; dose 0.1 mpk): 79% TSS
Editing (TTR in HUH7 cells): 22.6%
Mean % Indel (mouse TTR gene; [2]): 26.8%
Mean % Indel (mouse TTR gene; [3]): 60.6%
Editing Mean % Indel (mouse TTR gene; [4]): 50.0%
Editing Mean % Indel (mouse TTR gene; [5]): 67.7%
